Assay results taken from ChEMBL document CHEMBL4364344, “Design, synthesis and evaluation of activity and pharmacokinetic profile of new derivatives of xanthone and piperazine in the central nervous system” (Bioorg Med Chem Lett, 2019).
The source made the active and inactive calls. The rule behind the calls is not given here.

Tests used:
Mus musculus [1] = assay: Antidepressant-like activity in albino Swiss CD-1 mouse assessed as reduction in immobility at 10 mg/kg, ip pretreated for 30 mins and measured after 6 mins by force swim test relative to control; format: functional; parameters: scale not given: the % may be the effect or the level left
[2] = target: Serotonin 2 (5-HT2) receptor (Rattus norvegicus) (UniProt P30994+P08909+P14842); assay: Displacement of [3H]ketanserin from 5-HT2 receptor in Wistar rat brain cortex membrane at 10 uM after 40 mins by scintillation counting analysis relative to control; format: cell membranes
[3] = Drug metabolism in mouse liver microsomes assessed as metabolite formation by measuring retention time at 20 uM after 30 to 60 mins in presence of NADP by UPLC/MS analysis; format: ADME, Microsome
[4] = Mutagenicity in Salmonella typhimurium TA98 at 50 ug/plate preincubated for 20 mins followed by addition of top agar and measured after 48 hrs by Ames test; format: toxicity; conditions: salmonella enterica subsp. enterica serovar typhimurium
[5] = AUC (0 to t) in CD-1 mouse plasma at 5 mg/kg, ip measured up to 480 mins by LC/ESI-MS/MS analysis; format: ADME, organism-based; parameters: dose 5 mg/kg, time < 8 hr, route intraperitoneal
[6] = Mutagenicity in Salmonella typhimurium TA100 at 50 ug/plate preincubated for 20 mins followed by addition of top agar and measured after 48 hrs by Ames test; format: toxicity; conditions: salmonella enterica subsp. enterica serovar typhimurium
[7] = Apparent clearance in CD-1 mouse plasma at 5 mg/kg, ip measured up to 480 mins by LC/ESI-MS/MS analysis; format: ADME, organism-based
Mus musculus [8] = assay: Antidepressant-like activity in albino Swiss CD-1 mouse assessed as reduction in immobility at 20 mg/kg, ip pretreated for 30 mins and measured after 6 mins by force swim test relative to control; format: functional; parameters: scale not given: the % may be the effect or the level left
[9] = Tmax in CD-1 mouse plasma at 5 mg/kg, ip measured up to 480 mins by LC/ESI-MS/MS analysis; format: ADME, organism-based
[10] = Apparent volume of distribution in CD-1 mouse plasma at 5 mg/kg, ip measured up to 480 mins by LC/ESI-MS/MS analysis; format: ADME, organism-based
[11] = MRT in CD-1 mouse plasma at 5 mg/kg, ip measured up to 480 mins by LC/ESI-MS/MS analysis; format: ADME, organism-based
[12] = AUC (0 to total) in CD-1 mouse brain at 5 mg/kg, ip measured up to 480 mins by LC/ESI-MS/MS analysis; format: ADME, organism-based; conditions: in vivo, 8 h
[13] = Terminal half life in CD-1 mouse brain at 5 mg/kg, ip measured up to 480 mins by LC/ESI-MS/MS analysis; format: ADME, organism-based; conditions: read-out: beta t1/2
[14] = Mutagenicity in Salmonella typhimurium TA98 at 5 ug/plate preincubated for 20 mins followed by addition of top agar and measured after 48 hrs by Ames test; format: toxicity; conditions: salmonella enterica subsp. enterica serovar typhimurium
[15] = Cmax in CD-1 mouse plasma at 5 mg/kg, ip measured up to 480 mins by LC/ESI-MS/MS analysis; format: ADME, organism-based; parameters: dose 5 mg/kg, route intraperitoneal
[16] = Mutagenicity in Salmonella typhimurium TA100 at 250 ug/plate preincubated for 20 mins followed by addition of top agar and measured after 48 hrs by Ames test; format: toxicity; conditions: salmonella enterica subsp. enterica serovar typhimurium
[17] = Mutagenicity in Salmonella typhimurium TA100 preincubated for 20 mins followed by addition of top agar and measured after 48 hrs by Ames test; format: toxicity; conditions: salmonella enterica subsp. enterica serovar typhimurium
[18] = Mutagenicity in Salmonella typhimurium TA100 at 500 ug/plate preincubated for 20 mins followed by addition of top agar and measured after 48 hrs by Ames test; format: toxicity; conditions: salmonella enterica subsp. enterica serovar typhimurium
[19] = Mutagenicity in Salmonella typhimurium TA100 at 5 ug/plate preincubated for 20 mins followed by addition of top agar and measured after 48 hrs by Ames test; format: toxicity; conditions: salmonella enterica subsp. enterica serovar typhimurium
Mus musculus [20] = assay: Antidepressant-like activity in albino Swiss CD-1 mouse assessed as reduction in immobility at 5 mg/kg, ip administered 30 mins prior to test and measured after 6 mins by force swim test relative to control; format: functional; parameters: scale not given: the % may be the effect or the level left
Mus musculus [21] = assay: Antidepressant-like activity in Swiss CD-1 mouse assessed as reduction in immobility at 10 mg/kg, ip pretreated for 30 mins and measured after 6 mins by force swim test; format: functional, organism-based
[22] = MRT in CD-1 mouse brain at 5 mg/kg, ip measured up to 480 mins by LC/ESI-MS/MS analysis; format: ADME, organism-based
[23] = Tmax in CD-1 mouse brain at 5 mg/kg, ip measured up to 480 mins by LC/ESI-MS/MS analysis; format: ADME, organism-based
[24] = Terminal half life in CD-1 mouse plasma at 5 mg/kg, ip measured up to 480 mins by LC/ESI-MS/MS analysis; format: ADME, organism-based; conditions: read-out: beta t1/2
[25] = Ratio of drug uptake in CD-1 mouse brain to plasma at 5 mg/kg, ip measured up to 480 mins by LC/ESI-MS/MS analysis; format: ADME, organism-based; conditions: read-out: BPR
[26] = Cmax in CD-1 mouse brain at 5 mg/kg, ip measured up to 480 mins by LC/ESI-MS/MS analysis; format: ADME, organism-based; parameters: dose 5 mg/kg, route intraperitoneal
[27] = Mutagenicity in Salmonella typhimurium TA102 at 5 ug/plate preincubated for 20 mins followed by addition of top agar and measured after 48 hrs by Ames test; format: toxicity; conditions: salmonella enterica subsp. enterica serovar typhimurium
[28] = Mutagenicity in Salmonella typhimurium TA102 at 50 ug/plate preincubated for 20 mins followed by addition of top agar and measured after 48 hrs by Ames test; format: toxicity; conditions: salmonella enterica subsp. enterica serovar typhimurium
[29] = Mutagenicity in Salmonella typhimurium TA98 at 500 ug/plate preincubated for 20 mins followed by addition of top agar and measured after 48 hrs by Ames test; format: toxicity; conditions: salmonella enterica subsp. enterica serovar typhimurium
[30] = Mutagenicity in Salmonella typhimurium TA102 at 250 ug/plate preincubated for 20 mins followed by addition of top agar and measured after 48 hrs by Ames test; format: toxicity; conditions: salmonella enterica subsp. enterica serovar typhimurium
[31] = Mutagenicity in Salmonella typhimurium TA98 at 250 ug/plate preincubated for 20 mins followed by addition of top agar and measured after 48 hrs by Ames test; format: toxicity; conditions: salmonella enterica subsp. enterica serovar typhimurium
[32] = Mutagenicity in Salmonella typhimurium TA102 at 500 ug/plate preincubated for 20 mins followed by addition of top agar and measured after 48 hrs by Ames test; format: toxicity; conditions: salmonella enterica subsp. enterica serovar typhimurium
Mus musculus [33] = assay: Antidepressant-like activity in CD-1 mouse assessed as reduction in immobility at 10 mg/kg, ip pretreated for 30 mins and measured after 6 mins by force swim test relative to control; format: functional; parameters: scale not given: the % may be the effect or the level left
[34] = target: 5-hydroxytryptamine receptor 2A (Homo sapiens, UniProt P28223); assay: Displacement of [3H]-ketanserin from human 5-HT2A receptor expressed in CHO-K1 cell membranes after 60 mins by microbeta scintillation counting analysis
[35] = Mutagenicity in Salmonella typhimurium TA98 at 2.5 ug/plate preincubated for 20 mins followed by addition of top agar and measured after 48 hrs by Ames test; format: toxicity; conditions: salmonella enterica subsp. enterica serovar typhimurium
Mus musculus [36] = assay: Anxiolytic activity in Swiss CD-1 mouse assessed as increase in number of punished crossings at 5 mg/kg, ip administered 30 mins prior to test and measured for 60 secs by four-plate test relative to control; format: functional
Mus musculus [37] = assay: Anxiolytic activity in albino Swiss CD-1 mouse assessed as increase in number of punished crossings at 20 mg/kg, ip administered 30 mins prior to test by four-plate test relative to control; format: functional
Mus musculus [38] = assay: Anxiolytic activity in albino Swiss CD-1 mouse assessed as increase in number of punished crossings at 5 mg/kg, ip administered 30 mins prior to test by four-plate test relative to control; format: functional

Serotonin 2 (5-HT2) receptor (Rattus norvegicus), sequence (P08909 whole entry, looked up): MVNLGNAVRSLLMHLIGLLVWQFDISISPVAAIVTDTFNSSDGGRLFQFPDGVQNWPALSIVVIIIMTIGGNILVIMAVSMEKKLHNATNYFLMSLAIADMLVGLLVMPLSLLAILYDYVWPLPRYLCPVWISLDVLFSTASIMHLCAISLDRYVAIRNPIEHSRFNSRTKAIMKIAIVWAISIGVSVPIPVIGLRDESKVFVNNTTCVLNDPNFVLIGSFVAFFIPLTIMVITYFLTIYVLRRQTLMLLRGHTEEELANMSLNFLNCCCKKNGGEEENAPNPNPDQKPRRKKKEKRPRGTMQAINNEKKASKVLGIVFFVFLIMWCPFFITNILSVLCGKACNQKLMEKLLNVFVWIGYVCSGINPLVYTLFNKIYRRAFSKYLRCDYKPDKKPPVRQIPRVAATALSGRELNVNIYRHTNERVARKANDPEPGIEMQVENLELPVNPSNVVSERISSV
Serotonin 2 (5-HT2) receptor (Rattus norvegicus), sequence (P14842 whole entry, looked up): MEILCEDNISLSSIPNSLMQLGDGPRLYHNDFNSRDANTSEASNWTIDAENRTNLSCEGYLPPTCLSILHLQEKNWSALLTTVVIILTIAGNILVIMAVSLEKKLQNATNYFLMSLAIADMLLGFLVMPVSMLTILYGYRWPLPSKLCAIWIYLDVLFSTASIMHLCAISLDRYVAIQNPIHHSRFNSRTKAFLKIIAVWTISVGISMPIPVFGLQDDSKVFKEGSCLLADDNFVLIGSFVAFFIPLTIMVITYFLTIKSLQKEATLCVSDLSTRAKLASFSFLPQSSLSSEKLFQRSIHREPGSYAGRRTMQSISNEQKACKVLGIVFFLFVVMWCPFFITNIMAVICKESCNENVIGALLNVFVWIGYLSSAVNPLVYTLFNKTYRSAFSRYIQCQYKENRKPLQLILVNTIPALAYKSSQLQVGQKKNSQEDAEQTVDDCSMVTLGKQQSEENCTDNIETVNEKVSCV
Serotonin 2 (5-HT2) receptor (Rattus norvegicus), sequence (P30994 whole entry, looked up): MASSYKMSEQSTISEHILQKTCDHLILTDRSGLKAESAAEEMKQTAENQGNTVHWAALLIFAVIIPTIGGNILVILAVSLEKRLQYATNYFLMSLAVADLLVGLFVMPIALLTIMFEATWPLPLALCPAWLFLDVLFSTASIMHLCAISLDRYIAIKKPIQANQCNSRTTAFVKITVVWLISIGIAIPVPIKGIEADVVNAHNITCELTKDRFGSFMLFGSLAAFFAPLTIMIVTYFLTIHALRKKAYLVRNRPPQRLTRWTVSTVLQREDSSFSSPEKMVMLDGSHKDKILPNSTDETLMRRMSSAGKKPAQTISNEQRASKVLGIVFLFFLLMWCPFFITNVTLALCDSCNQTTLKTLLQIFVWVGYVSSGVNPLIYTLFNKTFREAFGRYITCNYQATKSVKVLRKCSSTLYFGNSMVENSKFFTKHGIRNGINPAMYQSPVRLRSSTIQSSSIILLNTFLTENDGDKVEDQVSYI
5-hydroxytryptamine receptor 2A, sequence (P28223 whole entry): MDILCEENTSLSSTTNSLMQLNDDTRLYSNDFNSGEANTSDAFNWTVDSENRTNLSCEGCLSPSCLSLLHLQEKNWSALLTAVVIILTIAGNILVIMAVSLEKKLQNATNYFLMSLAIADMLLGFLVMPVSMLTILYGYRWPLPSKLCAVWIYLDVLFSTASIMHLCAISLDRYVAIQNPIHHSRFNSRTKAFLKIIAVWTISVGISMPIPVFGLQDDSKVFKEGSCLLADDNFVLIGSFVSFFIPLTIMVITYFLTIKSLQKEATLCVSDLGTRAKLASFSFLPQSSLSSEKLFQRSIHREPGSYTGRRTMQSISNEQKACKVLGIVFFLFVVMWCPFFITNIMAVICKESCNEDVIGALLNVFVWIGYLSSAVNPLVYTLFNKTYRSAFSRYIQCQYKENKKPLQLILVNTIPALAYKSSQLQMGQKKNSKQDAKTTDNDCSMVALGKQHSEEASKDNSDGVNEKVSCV

Cl.Cl.O=c1c2ccc(Cl)cc2oc2c(CN3CCN(CCO)CC3)cccc12
Activity (Mus musculus [1]): 30%

O=c1c2ccc(Cl)cc2oc2c(CN3CCN(c4ccccc4)CC3)cccc12
inhibition [2]: 75%

CN1CCN(Cc2ccc3oc4ccc(Cl)cc4c(=O)c3c2)CC1
Retention_time [3]: 4.64 min | Activity_index [4]: 0.78 | AUC(0-t) at 8 h [5]: 334 ng·h/mL | Activity_index [6]: 0.43 | CL/F [7]: 226 mL/min/kg | Activity (Mus musculus [8]): 24.7% | Tmax [9]: 15 min | inhibition [2]: 50% | Vd/F [10]: 41.3 L/kg | MRT [11]: 129 min | AUCt [12]: 633023 ng·min/g | half-life [13]: 159 min | Activity_index [14]: 1.04 | Cmax [15]: 136 ng/mL | Activity_index [16]: 2.08 | Activity_index [17]: Dose-dependent effect | Activity_index [18]: 2.93 | Activity_index [19]: 1.21 | Activity (Mus musculus [20]): 37.8% | Activity (Mus musculus [21]): inactive | MRT [22]: 152 min | Tmax [23]: 30 min | half-life [24]: 126 min | Kp at 8 h [25]: 31.6 | Cmax [26]: 3690 ng/mL | Activity_index [27]: 1.04 | Activity_index [28]: 0.86

COc1ccc(OCCCN2CCN(Cc3ccc4oc5cc(OC)ccc5c(=O)c4c3)CC2)cc1
inhibition [2]: 75%

Cl.Cl.O=c1c2ccccc2oc2c(CN3CCN(CCO)CC3)cccc12
Retention_time [3]: 3.05 min | Activity_index [29]: 0.72 | Activity_index [4]: 0.86 | AUC(0-t) at 8 h [5]: 215 ng·h/mL | Activity_index [6]: 0.79 | CL/F [7]: 386 mL/min/kg | Tmax [9]: 15 min | inhibition [2]: 0% | Activity_index [30]: 0.39 | Vd/F [10]: 26.9 L/kg | MRT [11]: 40.3 min | AUCt [12]: 62578 ng·min/g | half-life [13]: 143 min | Activity_index [14]: 1.34 | Cmax [15]: 462 ng/mL | Activity_index [31]: 0.52 | Activity_index [16]: 0.46 | Activity_index [32]: 0.26 | Activity_index [18]: 0.31 | Activity_index [19]: 0.69 | Activity (Mus musculus [20]): 38.1% | MRT [22]: 24.1 min | Tmax [23]: 15 min | half-life [24]: 48.3 min | Kp at 8 h [25]: 4.85 | Cmax [26]: 2630 ng/mL | Activity (Mus musculus [1]): 25.6% | Activity_index [27]: 0.74 | Activity_index [28]: 0.54

COc1ccc(OCCCN2CCN(Cc3cccc4c(=O)c5ccc(OC)cc5oc34)CC2)cc1
inhibition [2]: 38%

COc1ccccc1N1CCN(Cc2cccc3c(=O)c4ccccc4oc23)CC1
inhibition [2]: 70%

COc1ccc2c(=O)c3cccc(CN4CCN(Cc5ccccc5)CC4)c3oc2c1
inhibition [2]: 41%

CCOC(=O)N1CCN(Cc2cccc3c(=O)c4ccccc4oc23)CC1
inhibition [2]: 3%

COc1ccc2c(=O)c3cc(CN4CCN(c5ccccc5OC)CC4)ccc3oc2c1.Cl
Activity (Mus musculus [33]): 32% | Ki [34]: 0.561 µM

Nc1ccc([N+](=O)[O-])cc1N
Activity_index [35]: 10.79

COc1ccc2c(=O)c3cccc(CN4CCN(c5ccccc5OC)CC4)c3oc2c1.Cl
Activity (Mus musculus [33]): 24% | Ki [34]: 2.18 µM

O=c1c2cc(Cl)ccc2oc2ccc(CN3CCN(CCO)CC3)cc12
inhibition [2]: 43%

[N-]=[N+]=[N-].[Na+] [SODIUM AZIDE]
Activity_index [19]: 2.26

O=c1c2ccccc2oc2c(CN3CCN(c4ccccc4)CC3)cccc12
inhibition [2]: 88%

COc1ccc2c(=O)c3cccc(CN4CCN(c5ccccc5)CC4)c3oc2c1
inhibition [2]: 91%

O=c1c2ccc(Cl)cc2oc2ccc(CN3CCN(CCO)CC3)cc12
inhibition [2]: 39%

CN1CCN(Cc2cccc3c(=O)c4ccc(Cl)cc4oc23)CC1.Cl.Cl
Activity (Mus musculus [8]): 28% | Activity (Mus musculus [36]): 100%

CCOC(=O)N1CCN(Cc2cccc3c(=O)c4ccc(OC)cc4oc23)CC1.Cl.Cl
Retention_time [3]: 4.12 min | Activity_index [29]: 1 | Activity_index [4]: 0.79 | AUC(0-t) at 8 h [5]: 481 ng·h/mL | Activity_index [6]: 0.61 | CL/F [7]: 165 mL/min/kg | Tmax [9]: 15 min | inhibition [2]: 22% | Activity_index [30]: 1.3 | Activity (Mus musculus [37]): 55.3% | Vd/F [10]: 43.8 L/kg | MRT [11]: 60.5 min | AUCt [12]: 82715 ng·min/g | half-life [13]: 72 min | Activity_index [14]: 0.76 | Cmax [15]: 468 ng/mL | Activity_index [31]: 0.72 | Activity_index [16]: 0.42 | Activity_index [32]: 0.87 | Activity_index [18]: 0.34 | Activity_index [19]: 0.68 | MRT [22]: 74.6 min | Tmax [23]: 30 min | half-life [24]: 184 min | Activity (Mus musculus [38]): 70.1% | Kp at 8 h [25]: 2.86 | Cmax [26]: 936 ng/mL | Activity (Mus musculus [1]): 50.2% | Activity_index [27]: 0.82 | Activity_index [28]: 0.77
